Results taken from patent US20060089375A1, “Pyrazolo[3,4-b] pyridine compounds, and their use as phosphodiesterase inhibitors” (priority 2002, published 2006).

Key:
[1] = target: T1, PDE4B (human recombinant) (Homo sapiens, UniProt Q07343); test: Inhibition of PDE4B activity: radioactive SPA or IMAP Fluorescence Polarisation (FP) assay; assay type: biochemical; conditions: PDE4B inhibitory activity, one reading or average of ca. 2-6 readings, read-out: PDE4B pIC50 (± about 0.5) (converted)
T1 construct: made in house
How it was run: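 SPA: yeast-expressed human recombinant PDE4B was preincubated with compound for 10–30 min at ambient temperature in Tris pH 7.5 with MgCl2, EGTA and BSA, then run 1 h with ~10 nM [3H]cAMP at ≤20% hydrolysis; 10 concentrations (1.5 nM–30 μM) gave pIC50. IMAP FP: Tris pH 7.2 with ~40 nM fluorescein-cAMP, under linear enzyme conditions.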

[2] = test system: LPS-induced pulmonary neutrophilia in rats; test: In Vivo Assay 1: LPS-induced pulmonary neutrophilia in rats, orally administered PDE4 inhibitors; conditions: Rattus norvegicus, po, aerosolized LPS 30 min after dosing, BAL 4 hours post LPS, read-out: neutrophilia-inhibition ED50
From the text: The purpose of this neutrophilia model is to study the potentially anti-inflammatory effects in vivo of orally administered PDE4 inhibitors on neutrophilia induced by inhalation of aerosolized lipopolysaccharide (LPS), modelling the neutrophil inflammatory component(s) of COPD. See the literature section below for scientific background.
Male Lewis rats (Charles River, Raleigh, N.C., USA) weighing approximately 300-400 grams are pretreated with either (a) test compound suspended in 0.5% methylcellulose (obtainable from Sigma-Aldrich, St Louis, Mo., USA) in water or (b) vehicle only, delivered orally in a dose volume of 10 ml/kg. Generally, dose response curves are generated using the following doses of PDE4 inhibitors: 10.0, 2.0, 0.4, 0.08 and 0.016 mg/kg. Thirty minutes following pretreatment, the rats are exposed to aerosolized LPS (Serotype E. Coli 026:B6 prepared by trichloroacetic acid extraction, obtainable from Sigma-Aldrich, St Louis, Mo., USA), generated from a nebulizer containing a 100 μg/ml LPS solution. Rats are exposed to the LPS aerosol at a rate of 4 L/min for 20 minutes. LPS exposure is carried out in a closed chamber with internal dimensions of 45 cm length×24 cm width×20 cm height. The nebulizer and exposure chamber are contained in a certified fume hood. At 4 hours-post LPS exposure the rats are euthanized by overdose with pentobarbital at 90 mg/kg, administered intraperitoneally. Bronchoalveolar lavage (BAL) is preformed through a 14 gauge blunt needle into the exposed trachea. Five, 5 ml washes are performed to collect a total of 25 ml of BAL fluid. […] Percent neutrophil inhibition at each dose (cf. vehicle) is calculated and a variable slope, sigmoidal dose-response curve is generated, usually using Prism Graph-Pad. […]
Alternative method and results: In an alternative embodiment of the procedure, single oral doses of 10 mg/kg or 1.0 mg/kg of the PDE4 inhibitor (or vehicle) is administered to the rats, and percent neutrophil inhibition is calculated and reported for that specific dose.

T1 sequence (Q07343 1-564 isoform Q07343-2): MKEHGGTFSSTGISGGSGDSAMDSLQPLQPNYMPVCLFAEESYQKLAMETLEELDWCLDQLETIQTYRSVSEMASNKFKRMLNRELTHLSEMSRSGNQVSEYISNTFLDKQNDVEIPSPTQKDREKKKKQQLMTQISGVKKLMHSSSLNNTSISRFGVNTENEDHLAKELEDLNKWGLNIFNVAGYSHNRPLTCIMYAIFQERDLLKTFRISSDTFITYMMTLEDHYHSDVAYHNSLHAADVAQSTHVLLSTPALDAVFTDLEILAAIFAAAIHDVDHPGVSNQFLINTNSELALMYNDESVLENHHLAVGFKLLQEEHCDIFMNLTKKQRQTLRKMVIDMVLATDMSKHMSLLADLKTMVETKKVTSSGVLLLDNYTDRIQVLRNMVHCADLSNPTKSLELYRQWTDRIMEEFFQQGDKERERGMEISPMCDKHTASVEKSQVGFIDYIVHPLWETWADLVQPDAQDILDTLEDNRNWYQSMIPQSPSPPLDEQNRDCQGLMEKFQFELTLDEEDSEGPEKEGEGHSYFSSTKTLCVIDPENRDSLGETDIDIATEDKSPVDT

Row | IC50 [1] | SMILES | ED50 [2]
1 | 12.6 nM | CCn1ncc2c(NC3CCOCC3)c(C(=O)Nc3ccc(F)cc3)cnc21 [Example 22, 1-Ethyl-N-(4-fluorophenyl)-4-(tetrahydro-2H-pyran-4-ylamino)-1H-pryazolo[3,4-b]pyridine-5-carboxamide] | 0.5 to 2 mg/kg
2 | 12.6 to 100 nM | CCNC(=O)c1cnc2c(cnn2CC)c1NC1CCOCC1 [Example 83, 1-Ethyl-N-ethyl-4-(tetrahydro-2H-pyran-4-ylamino)-1H-pyrazolo[3,4-b]pyridine-5-carboxamide] | 0.5 to 2 mg/kg
3 | 0.1 to 6.31 nM | CCn1ncc2c(NC3CCOCC3)c(C(=O)NCc3ccc(C(F)(F)F)cc3)cnc21 [Example 155, 1-Ethyl-4-(tetrahydro-2H-pyran-4-ylamino)-N-[4-(trifluoromethyl)benzyl]-1H-pyrazolo[3,4-b]pyridine-5-carboxamide] | 0.5 to 2 mg/kg
